What was measured:
PC-3 cells = experiment: clonogenic assay; type: cell-based, human; details: LiCl 10 mM, 14 days
Experimental: For clonogenic assays, 1.0×10^3 cells were seeded in a 35-mm dish and cultured in a medium containing LiCl at the indicated doses. The cultures were monitored daily for colony formation. On day 14, the cultures were washed with phosphate-buffered saline (“PBS”), fixed, and stained as described previously (Liao 2005). The colonies were counted and photographed under an inverted microscope.
Next, the clonogenic assay was used to test the effect of LiCl on cell colony formation. The clonogenic survival fractions of the cells cultured in the presence or absence of increasing concentration of LiCl were measured in two cell lines, androgen refractory PC-3 (data shown) and androgen-responsive LNCaP (data not shown).

LNCaP cells = experiment: MTT cell growth assay; type: cell-based, human; details: equimolecular concentrations of LiCl, NaCl, KCl, three days
Experimental: For MTT-based cell growth assays, cells seeded in 96-well plates were serum-starved for 48 hours, and were then treated with vehicle or different reagents for different time periods as indicated in the figures. MTT assay were carried out using a pre-assembled kit (Sigma) according to the manufacturer's manual.
To rule out the eventual intervention of the chloride anion and the osmotic disturbance, the effect of LiCl was compared with sodium chloride (“NaCl”) and potassium chloride (“KCl”) at equimolecular concentrations in both LNCaP and PC-3 cell lines. In addition, the androgen-insensitive C4-2 cell line was included. To easily handle the experiments while multiple comparisons were taken in place, a MTT assay was used to assess cell growth.
Lastly, two GSK-3β-specific small chemical inhibitors, SB216763 and BIO, were used to verify that LiCl-induced suppression of cell growth is due to GSK-3β inhibition. LNCaP cells were seeded as above and then treated with increasing doses of the inhibitors in a full culture medium. Cell growth was assessed three days later by MTT assay.

AR-null PC-3 xenografts = experiment: mouse xenograft model, protocol A; type: in vivo, nude mice; details: LiCl 2 mg/kg i.p. daily
Experimental: All animal studies were conducted under an approved Institutional Animal Care and Use Committee protocol. Single cell suspensions (2×10^6 cells in 0.1 ml of RPMI1640 medium plus 10% FBS) were inoculated subcutaneously (s.c.) into the rear flanks (two sites/mouse) of 6 to 7 weeks old male nude mice (Charles River, Wilmington, Mass.). For protocol A, mice were randomly divided into two groups (5 animals each). On next day after inoculation, one group of animals received i.p. injection of LiCl at a daily dose of 2 mg/kg body weight. LiCl was dissolved in PBS. The control groups of animals received PBS alone in the same volume. Xenograft development and growth were monitored for 8 weeks. The tumor dimensions were measured twice a week. The tumor volume was calculated by the formula of L×W×H×0.5236 (Miyake 2001). At the end of treatment, xenograft tumors were extirpated, and the final tumor size and weight, as well as animal weight were measured. For protocol B, treatment began until tumor became palpable or 50 mm^3 in size, and LiCl or PBS was injected (5 animals each group) as above for a two-week course. Tumor size and weight were measured at the end of treatment. For BrdU in vivo labeling, the animals were injected i.p. with 0.5 ml of a 10-mM BrdU solution (Invitrogen) 2 hours before sacrifice. For experiments involving LNCaP-BclxL SB216763 subline cells (Liao 2005) were inoculated as above, and SB216763 treatment was started two weeks later when palpable xenografts were established. The SB216763 for animal use was purchased from Biomol (Plymouth Meeting, Pa.) and dissolved in a formula containing 50% N,N-dimethylacetamide (“DMA”), 45% polyethylene glycol 400 (“PEG-400”) and 5% Tween-80. SB216763 (2 mg/kilogram/bodyweight) or the solvent in 20 μl volume was injected i.p. three times a week. Tumor growth was monitored as discussed herein.
This example investigated GSK-3β inhibitor-induced suppression of cancer cell growth in vivo. A mouse xenograft model was used to examine the effect of GSK-3β inhibitor on tumor growth in two different strategies (protocol A and B). In both protocols, LiCl was delivered at a daily dose i.p. of 2 mg/kg of body weight. This dose level is more than 100-fold lower than a therapeutic dose for mental diseases in mouse (Noble 2005) or human (Moore 2002).
In protocol A, LiCl treatment was started on the same day when AR-null PC-3 cancer cells were inoculated into animals. AR-null PC-3 xenografts were developed around 4 weeks after inoculation in PBS-treated control animals.

PC-3 xenografts = experiment: mouse xenograft model, protocol B (palpable tumors), with in vivo BrdU labeling and TUNEL; set-up: species or system nude mice
Experimental: All animal studies were conducted under an approved Institutional Animal Care and Use Committee protocol. Single cell suspensions (2×10^6 cells in 0.1 ml of RPMI1640 medium plus 10% FBS) were inoculated subcutaneously (s.c.) into the rear flanks (two sites/mouse) of 6 to 7 weeks old male nude mice (Charles River, Wilmington, Mass.). For protocol A, mice were randomly divided into two groups (5 animals each). On next day after inoculation, one group of animals received i.p. injection of LiCl at a daily dose of 2 mg/kg body weight. LiCl was dissolved in PBS. The control groups of animals received PBS alone in the same volume. Xenograft development and growth were monitored for 8 weeks. The tumor dimensions were measured twice a week. The tumor volume was calculated by the formula of L×W×H×0.5236 (Miyake 2001). At the end of treatment, xenograft tumors were extirpated, and the final tumor size and weight, as well as animal weight were measured. For protocol B, treatment began until tumor became palpable or 50 mm^3 in size, and LiCl or PBS was injected (5 animals each group) as above for a two-week course. Tumor size and weight were measured at the end of treatment. For BrdU in vivo labeling, the animals were injected i.p. with 0.5 ml of a 10-mM BrdU solution (Invitrogen) 2 hours before sacrifice. For experiments involving LNCaP-BclxL SB216763 subline cells (Liao 2005) were inoculated as above, and SB216763 treatment was started two weeks later when palpable xenografts were established. […] Tumor growth was monitored as discussed herein. […]
In protocol B, animals were treated with LiCl at 2 mg/kg for a two-week course when PC-3 xenografts were palpable or about […] in size. Tumor weight was measured at the endpoint of treatment and was compared between LiCl-treated and PBS control groups.
Next, the DNA synthesis associated with LiCl-induced tumor suppression in vivo was also investigated. DNA synthesis was measured by an in vivo BrdU incorporation assay. Meanwhile, apoptotic events, if any, were detected using TUNEL assay. […]

[1] = protocol A, end of 8-week treatment

[Cl-].[Li+] [LiCl, Lithium chloride]
clonogenic surviving fractions (PC-3 cells): significantly suppressed
cell growth inhibition (MTT) (LNCaP cells): dramatic inhibition
animal body weight and daily activities, treatment vs control (AR-null PC-3 xenografts; nude mice): no significant difference
abnormality of daily activities / side effects (AR-null PC-3 xenografts; nude mice, both protocols A and B): no obvious abnormality of daily activities or any sign of side effect
xenograft development, time after inoculation (AR-null PC-3 xenografts; protocol A, PBS control around 4 weeks): 6-7 weeks
tumor volume vs PBS control (AR-null PC-3 xenografts; [1]): significant reduction
tumor weight vs PBS control (AR-null PC-3 xenografts; [1]): significant reduction
TUNEL staining (apoptotic events) in xenografts, LiCl vs PBS (PC-3 xenografts; LiCl 2 mg/kg): did not show any difference
BrdU labeling in xenografts vs PBS control (PC-3 xenografts; in vivo BrdU incorporation, BrdU injected two hours before sacrifice): significantly reduced
tumor weight vs PBS control (PC-3 xenografts; protocol B, LiCl 2 mg/kg, two-week course on palpable xenografts): significantly reduced
